Results: EP0979831B1, “Antibacterial peptides and antibacterial agents containing such peptides as an effective ingredient” (National Institute of Agrobiological Sciences, priority 1998, dated 2003)
Converted amounts (≈) assume the structure as drawn. Residues, ends and D or L forms follow the SMILES beside them.

system: Escherichia coli; format: cell-based
Protocol: Minimum Inhibitory Concentration (MIC) of these antibacterial peptides (1) to (5) against Staphylococcus aureus, methicillin resistant Staphylococcus aureus (MRSA), Escherichia coli and Pseudomonas aeruginosa was determined.

Going from CC[C@H](C)[C@H](NC(=O)[C@H](C)NC(=O)[C@H](CC(C)C)NC(=O)[C@H](Cc1c[nH]c2ccccc12)NC(=O)[C@H](CC(C)C)NC(=O)[C@H](C)N)C(=O)N[C@@H](CCCNC(=N)N)C(=O)N[C@@H](CCCCN)C(=O)N[C@@H](CCCNC(=N)N)C(N)=O [present peptide (5), Ala Leu Trp Leu Ala Ile Arg Lys Arg] (H-ALWLAIRKR-NH2) to CC[C@H](C)[C@H](NC(=O)[C@H](C)NC(=O)[C@H](CC(C)C)NC(=O)[C@H](CC(C)C)NC(=O)[C@H](Cc1c[nH]c2ccccc12)NC(=O)[C@H](C)N)C(=O)N[C@@H](CCCNC(=N)N)C(=O)N[C@@H](CCCCN)C(=O)N[C@@H](CCCNC(=N)N)C(N)=O [present peptide (3), Ala Trp Leu Leu Ala Ile Arg Lys Arg] (H-AWLLAIRKR-NH2), the “MIC E coli” value falls from 10 µg/mL (≈ 8.89 µM) to 5 µg/mL (≈ 4.44 µM) (2-fold).

Going from CC[C@H](C)[C@H](NC(=O)[C@H](C)NC(=O)[C@H](CC(C)C)NC(=O)[C@H](CCCNC(=N)N)NC(=O)[C@H](CC(C)C)NC(=O)[C@H](C)N)C(=O)N[C@@H](CCCNC(=N)N)C(=O)N[C@@H](CCCCN)C(=O)N[C@@H](CCCNC(=N)N)C(N)=O [present peptide (1), Ala Leu Arg Leu Ala Ile Arg Lys Arg] (H-ALRLAIRKR-NH2) to CC[C@H](C)[C@H](NC(=O)[C@H](C)NC(=O)[C@H](CC(C)C)NC(=O)[C@H](CC(C)C)NC(=O)[C@H](CC(C)C)NC(=O)[C@H](C)N)C(=O)N[C@@H](CCCNC(=N)N)C(=O)N[C@@H](CCCCN)C(=O)N[C@@H](CCCNC(=N)N)C(N)=O [present peptide (2), Ala Leu Leu Leu Ala Ile Arg Lys Arg] (H-ALLLAIRKR-NH2), the “MIC E coli” value rises from 4 µg/mL (≈ 3.65 µM) to 6 µg/mL (≈ 5.7 µM) (1.5-fold).

For CC[C@H](C)[C@H](NC(=O)[C@H](C)NC(=O)[C@H](CC(C)C)NC(=O)[C@H](Cc1ccc(O)cc1)NC(=O)[C@H](CC(C)C)NC(=O)[C@H](C)N)C(=O)N[C@@H](CCCNC(=N)N)C(=O)N[C@@H](CCCCN)C(=O)N[C@@H](CCCNC(=N)N)C(N)=O [present peptide (4), Ala Leu Trp Leu Ala Ile Arg Lys Arg], the “MIC E coli” value was 4 µg/mL (≈ 3.63 µM).
